Several values for one entry are separate records, joined by “and”; a condition that tells them apart may be missing. Equal values may be shown once.
Key:
[1] = system: C57BL/6J mice; assay: Dex treatment mouse model of skeletal muscle atrophy, BML-260 treatment; format: in vivo; conditions: TA muscle of C57BL/6 mice treated with Dex, Vehicle average = 1, n = 4
[2] = system: C2C12 murine myotubes; assay: RNA Seq of DUSP22 expression in Dex-treated C2C12 myotubes; format: cell-based, mouse; conditions: C2C12 myotubes treated with Dex, three clusters of n = 3, replicates
Description: (A) DUSP22 expression in aged individuals (over 70 years, n = 15) and aged individuals diagnosed with sarcopenia (over 70 years, n = 18), p = 0.0009 (obtained from the Singapore Sarcopenia Study; (GEO accession no. GSE111016 (Migliavacca et al, [2019])). (B) DUSP22 expression in C2C12 murine myotubes treated with vehicle or dexamethasone (Dex) to induce atrophy (n = 3 each) Custer 1 (p = 0.024), Cluster 2 (p = 0.13), Cluster 3 (p = 0.0246). Expression was measured using RNA Seq. TPM=transcript per million. (C) qPCR analysis of DUSP22 expression in four models of muscle atrophy: (1) C2C12 myotubes treated with Dex (n = 5), p = 7.67E−05, (2) the TA muscle of C57BL/6 mice treated with Dex (n = 4), p = 0.09, (3) the TA muscle of young (5 months-old, n = 9) and geriatric (27 months-old, n = 8) C57BL/6 mice, p = 0.0324, (4) the TA of C57BL/6 mice after hind limb immobilization (n = 3), p = 0.018. (D) qPCR of DUSP22 expression in C2C12 myoblasts transfected with a DUSP22 CRISPR activation plasmid (DUSP22^endoOE) or control plasmid (CON^endoOE) (n = 3), p = 0.0022. (E) Fast myosin (MYH2) immunocytochemistry of CON^endoOE and DUSP22^endoOE myoblasts after 96 h culture in DM (scale bar = 100 µm). (F) Fusion index (n = 6). (G) Differentiation index (n = 6), p = 9.91E−09. […]

[3] = system: adipocytes; design: method as in Feng et al, 2019; conditions: ref Feng et al, 2019; cited from earlier work

Row | SMILES | DUSP22 expression, qPCR, Average [1] | DUSP22 expression, RNA Seq [2] | expression of uncoupling protein-1 (UCP-1) [3]
1 | C[C@@H]1C[C@H]2[C@@H]3CCC4=CC(=O)C=C[C@]4(C)[C@@]3(F)[C@@H](O)C[C@]2(C)[C@@]1(O)C(=O)CO [Dex, dexamethasone] | 1.655 | 18.5715 TPM and 15.8769 TPM and 15.1133 TPM and 25.7965 TPM and 17.3247 TPM and 20.9604 TPM and 20.6804 TPM and 15.7123 TPM and 15.7246 TPM | 
2 | O=C(O)c1ccc(N2C(=O)C(=Cc3ccccc3)SC2=S)cc1 (stereo in doubt) [BML-260] |  |  | upregulates
